Laboratory results: patent US20070243548A1, “Calumenin-directed diagnostics and therapeutics for cancer and chemotherapeutic drug resistance” (priority 2006, published 2007)
Like-named read-outs stand apart in the source and are kept apart here.

Assays:
Assay type in all cases: cell-based, human
[1] = system: MCF-7 cells; test: cells; details: 72 hours post transfection
[2] = system: MCF-7 cells; test: cells; details: for fold more sensitive to drug / fold lower viability to drug treatment as compared to control cells: calumenin-depleted MCF-7 cells; for fold more sensitive to drug: FIGS. 6A and 6B; for IC50: Homo sapiens, MCF7; for IC50 / IC10: MCF-7 cells, determined from MTT experiments; for fold lower viability to drug treatment as compared to control cells: FIGS. 6C and 6D
Method: (§1) For a typical siRNA transfection, […] of the annealed siRNA duplex was mixed with 1.4 ml of Opti-MEM reagent (Invitrogen). In another tube, […] of Oligofectamine reagent (Invitrogen, Carlsbad, Calif.) was mixed with […] of Opti-MEM. The two solutions were combined and mixed gently by inversion and incubated for 20 min. at RT. The resulting solution was added to the cultured cells drop by drop in a 10 cm dish (cells are approximately 40-50% confluent). The next day the transfected cells were trypsinized and seeded in 6 or 96-well plates and further incubated for the indicated amount of time (assay dependent) before further analysis.
(§2) Cell survival was determined using the MTT cytotoxicity assay (see, e.g., Tokuyama et al. (2005) Anticancer Res. 25(1A): 17-22). Small interfering RNA transfected cells were seeded in triplicate into 96-well plates at 5×10^3 cells/well 48 hrs post-transfection. The cells were incubated for an additional 16 to 24 hrs before they were exposed to increasing concentrations of cytotoxic drugs. Doxorubicin (adriamycin), cisplatin, taxol, vinblastine, vincristine, and mitoxantrone were all purchased from Sigma Corp. (St. Louis, Mo.). Stocks were made as follows: 6 mM for doxorubicin, 1.1 mM for vincristine and vinblastine; 1.1 mM for taxol, 50 mM for cisplatin both in DMSO; and 0.97 mM mitoxantrone in ethanol. Appropriate dilutions were made in the respective media for each cell line. Following addition of drugs, incubation was continued for an additional 72 hrs. […] of MTT dye (5 mg/ml) were added into each well and the plate was further incubated at 37° C. for 4 hrs. The dye was solubilized with 10% Triton X-100, 0.01 N HCl and further incubated at 37° C. in the dark for 30 min. Cell viability was determined by measure of absorption at 570 nm in a Wallac multiwell plate reader (PerkinElmer, Inc., Boston, Mass.). The averages of triplicate wells were plotted using the Prism software (GraphPad Software, Inc., San Diego, Calif.).

[3] = system: SKOV3 ovarian adenocarcinoma cell lines; test: MTT cytotoxicity assay, calumenin-depleted SKOV3 cells; details: Table 3; calumenin-depleted SKOV3 vs mock siRNA-transfected cells
Method: as §1, §2

[4] = system: MDA breast adenocarcinoma cell line; test: MTT cytotoxicity assay, calumenin-depleted MDA cells; details: Table 3; calumenin-depleted MDA vs mock siRNA-transfected cells; NC = no change occurred
Method: as §1, §2

[5] = system: MCF-7 cells; test: Clonogenic assay, siRNA-transfected MCF-7 cells; details: FIG. 7; for cell survival, calumenin-directed siRNA and drug treatment as compared to drug treatment alone: MCF-7, IC10 and IC90 drug concentrations
Method: A clonogenic assay generated additional information concerning cell viability after drug-resistant cells were exposed to siRNA and chemotherapeutics. Briefly, transfected MCF-7 cells were seeded in triplicate into 24-well plates at 5×10^3 cells/well 48 hrs post-transfection. The cells were incubated for an additional 16-24 hrs before they were exposed to increasing concentrations of cytotoxic drugs. […] The cells were further incubated for an additional 7 days. At the end of the incubation, the cells were stained with addition of a 0.5% Methylene Blue solution in 50% ethanol for 15 min. at RT. The staining solution was then removed and plates were dried overnight. The plates were scanned and the stained colonies were solubilized in 0.1% SDS. The absorbance of the resulting solution was determined by spectrophotometry at 660 nm. […] The same results were found for cells treated with vincristine and calumenin-directed siRNA as compared to vincristine alone (FIG. 7).

[6] = Homo sapiens, MCF7 cells transfected with calumenin-directed siRNA (table: vector expressing calumenin-encoding RNA), read-out: EC50, Calumenin
[7] = Homo sapiens, mock vector transfected MCF7 cells, read-out: EC50, Control
[8] = Table 2, calumenin vs control transfected MCF7 cells
[9] = Table 3, calumenin-depleted MCF-7 vs mock siRNA-transfected cells
[10] = calumenin depleted MCF-7, IC50 drug treatment level

| SMILES | EC50 [1, 6] | EC50 [1, 7] | IS: increased sensitivity to the particular drug [2, 8] | IS: increased sensitivity to the particular drug [3] | IS: increased sensitivity to the particular drug [4] | IS: increased sensitivity to the particular drug [2, 9] | fold more sensitive to drug [2] | IC50 [2] | IC10 [2] | sensitivity of calumenin silenced MCF-7 cells to drug [5] | cell survival, calumenin-directed siRNA and drug treatment as compared to drug treatment alone [5] | more sensitive to drug than cells transfected with control siRNA [5, 10] | more sensitive to drug than cells transfected with control siRNA ([5]; calumenin-directed siRNA transfected MCF-7, IC10 drug treatment level) | EC50 ([1]; MCF7 cells transfected with calumenin-directed siRNA (table: vector expressing calumenin-encoding RNA), read-out: EC50, Calumenin) | EC50 ([1]; mock vector transfected MCF7 cells, read-out: EC50, Control) | fold lower viability to drug treatment as compared to control cells [2] | more sensitive to drug than cells transfected with control siRNA ([5]; calumenin depleted MCF-7, IC90 drug treatment level) |
| --- | --- | --- | --- | --- | --- | --- | --- | --- | --- | --- | --- | --- | --- | --- | --- | --- | --- |
| CC(=O)O[C@@]12CO[C@@H]1C[C@H](O)[C@@]1(C)C(=O)[C@H](O)C3=C(C)[C@@H](OC(=O)[C@H](O)[C@@H](NC(=O)OC(C)(C)C)c4ccccc4)C[C@@](O)([C@@H](OC(=O)c4ccccc4)[C@H]21)C3(C)C [Docetaxel] | 0.00463 nM | 0.00976 nM | 2.1 × IS | – | – | – | – | – | – | – | – | – | – | – | – | – | – |
| CC[C@]1(O)C[C@@H]2CN(CCc3c([nH]c4ccccc34)[C@@](C(=O)OC)(c3cc4c(cc3OC)N(C)[C@H]3[C@@](O)(C(=O)OC)[C@H](OC(C)=O)[C@]5(CC)C=CCN6CC[C@]43[C@@H]65)C2)C1 [Vinblastine] | – | 0.00149 nM | 656.9 × IS | – | – | – | – | – | – | – | – | – | – | – | – | – | – |
| COc1cccc2c1C(=O)c1c(O)c3c(c(O)c1C2=O)C[C@@](O)(C(=O)CO)C[C@@H]3O[C@H]1C[C@H](N)[C@H](O)[C@H](C)O1 [Doxorubicin] | 27.4 nM | 50 nM | 1.8 × IS | 1.6 × IS | 2.4 × IS | 1.8 × IS | two | – | – | – | – | – | – | – | – | – | – |
| O=C1c2c(O)ccc(O)c2C(=O)c2c(NCCNCCO)ccc(NCCNCCO)c21 [Mitoxantrone] | 1.38 nM | 6.04 nM | 4.4 × IS | 1.6 × IS | 6 × IS | 4.4 × IS | four | – | – | – | – | – | – | – | – | – | – |
| COc1cc([C@@H]2c3cc4c(cc3[C@@H](O[C@@H]3O[C@@H]5CO[C@@H](C)O[C@H]5[C@H](O)[C@H]3O)[C@H]3COC(=O)[C@H]23)OCO4)cc(OC)c1O [Etoposide] | 957 nM | 1200 nM | 1.3 × IS | – | – | – | – | – | – | – | – | – | – | – | – | – | – |
| CC(=O)O[C@H]1C(=O)[C@@]2(C)[C@H]([C@H](OC(=O)c3ccccc3)[C@]3(O)C[C@H](OC(=O)[C@H](O)[C@@H](NC(=O)c4ccccc4)c4ccccc4)C(C)=C1C3(C)C)[C@]1(OC(C)=O)CO[C@@H]1C[C@@H]2O [Taxol] | – | – | 4130.2 × IS | 2.1 × IS | 3.8 × IS | >10 × IS | – | 100 nM | 1 nM | substantial increase | significantly decreased | 50% | 30% | – | – | – | – |
| N.N.[Cl][Pt][Cl] [Cisplatin] | – | – | 8.5 × IS | 3.3 × IS | – | 8.5 × IS | – | – | – | – | – | – | – | 2240 nM | 19100 nM | 9 fold | – |
| CC[C@]1(O)C[C@H]2CN(CCc3c([nH]c4ccccc34)[C@@](C(=O)OC)(c3cc4c(cc3OC)N(C=O)[C@H]3[C@@](O)(C(=O)OC)[C@H](OC(C)=O)[C@]5(CC)C=CCN6CC[C@]43[C@@H]65)C2)C1 [Vincristine] | 0.00274 nM | 0.0471 nM | 17.2 × IS | 4 × IS | 3.8 × IS | 17 × IS | – | 0.25 nM | 5000 nM | substantial increase | same results | 20% | – | – | – | 17 fold | 33% |
